Assay results taken from patent US20250213547A1, “METHODS OF TREATING NEUROLOGICAL DISEASES” (priority 2022, published 2025).
Converted amounts (≈) assume the structure as drawn.

Target: T1, CH24H (Homo sapiens, UniProt Q9Y6A2)
T1 construct: from tissue; host or cells: brain of living human trial subjects (in vivo)
Test: PK/PD (PK/OE/24HC) turnover modeling
Conditions: for BL / IC50 / IGAM / Imax / KOUT: ELEKTRA subjects; for BL: 24HC baseline
Source text: Similar to the PK model, the PK/PD model was developed as a population mixed-effects model and incorporated the individual PK parameters from the final PK population model. A turnover model was used to characterize changes in plasma 24HC overtime. Plasma 24HC was considered to be at steady-state baseline (BL) before the start of treatment. […] PK/PD covariates were screened in a procedure similar to the PK covariates. In the final PK/PD model, two covariates, A1-AGLP and body weight affected baseline 24HC.
The PK/PD analysis dataset consisted of 2165 24HC observations from 3 phase I trials. Four subjects from the ELEKTRA study with large IC50 estimates were excluded from the dataset. Additionally, 42 individuals with large conditional weighted residuals were excluded from the dataset. The final dataset contained 2107 24HC observations from 248 subjects. Table 26 summarizes the modeling dataset with reference to example numbers, respective clinical trial ID, subject numbers, regimen, and number of observations and doses. Tables 27 and 28 summarize the categorical covariates used in PK/OE/24HC analysis from the entire dataset and the ELEKTRA study subset, respectively.
Tables 29 and 30 summarize the mean continuous variables used in the PK/OE/24HC covariate analysis from the entire PK/OE/24HC population studied and the ELEKTRA subset, respectively. In addition to the shared variables, the PK/PD dataset contained the individual final estimates of the population PK model parameters (IND_ALAG1, IND_KA, IND_CL, IND_V2, IND_Q, IND_V3, and IND_F1). Subjects without individual PK parameter estimates (e.g. subjects from the placebo arms) were assigned to the respective geometric mean of the estimated individual parameter values.
A turnover model was used to describe changes in 24HC concentration over time. […] The following formula estimates change in 24HC: […]
The indirect exposure effect (EFF) was estimated by an Imax model:
The effect-site concentration was implemented as a delayed equilibrium with the plasma/brain transit rate parameter (KPLBR):
The scaling parameter KPLBR was previously estimated in a competitive enzyme occupancy model derived from PET brain imaging data (NCT02497235, Table 19). Parameters derived from this base model were fixed at their previous final PK population estimates derived from example 12. However, no random effects could be estimated without enzyme occupancy data. FIG. 26 depicts the basic model structure in relation to observed and unobserved data. There was a strong growth-related increase in baseline 24HC levels, which was only observed in young subjects.
The following variables were screened by forward inclusion, backward exclusion F-tests: • Growth/maturity: Weight, BMI, and age • Protein binding: Albumin (ALB), A1-AGLP • Liver function: AST, ALT, GGT, and ALP • Kidney function: Creatinine clearance (CRCL), eGFR • Categorical variables: Asian, sex. Ethnicity, and disease type

T1 sequence (Q9Y6A2 whole entry): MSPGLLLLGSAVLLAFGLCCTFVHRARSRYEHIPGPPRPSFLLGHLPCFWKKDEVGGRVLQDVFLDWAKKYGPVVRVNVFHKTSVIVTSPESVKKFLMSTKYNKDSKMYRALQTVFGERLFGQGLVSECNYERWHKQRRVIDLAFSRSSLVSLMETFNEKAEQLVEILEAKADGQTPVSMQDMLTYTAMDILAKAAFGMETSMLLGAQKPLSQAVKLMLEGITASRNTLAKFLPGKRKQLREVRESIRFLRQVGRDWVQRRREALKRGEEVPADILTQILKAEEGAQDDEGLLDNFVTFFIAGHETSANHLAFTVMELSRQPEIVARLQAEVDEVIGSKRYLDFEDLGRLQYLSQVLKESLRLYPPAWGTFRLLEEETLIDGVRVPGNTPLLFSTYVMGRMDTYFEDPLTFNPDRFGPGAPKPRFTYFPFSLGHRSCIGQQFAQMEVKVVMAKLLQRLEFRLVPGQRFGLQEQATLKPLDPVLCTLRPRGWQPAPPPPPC

`O=C(c1cccnc1-c1ccncc1)N1CCC(O)(Cc2ccccc2)CC1` [soticlestat] showed a KOUT typical value (24HC elimination rate) of 0.0215 h⁻¹, a BL (Mean) of 96.4 ng/mL and a BL (Median) of 84.775 ng/mL. The BL (Range) was 31.63 to 303.45 ng/mL, the IC50 (Mean) was 12.8 ng/mL (≈ 0.0343 µM) and the IGAM (Mean) was 0.83. The Imax (Mean) was 93.5%, the KOUT (Mean) was 0.022 h⁻¹ and the IC50 (Median) was 10.06 ng/mL (≈ 0.0269 µM). It also gave an IGAM (Median) of 0.83, an Imax (Median) of 93.5% and a KOUT (Median) of 0.022 h⁻¹. For the same molecule, the IC50 (Range) was 2.17 to 76 ng/mL, the IGAM (Range) was 0.83-0.83 and the Imax (Range) was 93.5-93.5%. For the same molecule, the KOUT (Range) was 0.022-0.022 1/h, the “maximum inhibition of 24HC synthesis (Imax), typical value” (PK/PD turnover model) was 93% and the “IC50 for 24HC, typical value” (PK/PD turnover model, soticlestat concentration) was 10.1 ng/mL. For the same molecule, the “24HC Baseline (BL): age cut-off” value (covariate on BL) was 21.2 y, the “24HC Baseline (BL) typical value” (final PK/OE/24HC model) was 50.5 ng/mL and the “Enzyme Occupancy: KPLBR plasma-brain rate” value (final PK/OE/24HC model, fixed) was 0.254 h⁻¹. For the same molecule, the “plasma/brain scaling parameter KPLBR (fixed)” value (from PET enzyme occupancy model) was 0.254 h⁻¹ and the Imax typical value (maximum inhibition of 24HC) was 93.5%.
